Structures can show the parent of a compound that is named as a salt.
What follows are molecules tested against T1, Porcine DPP-IV (Sus scrofa, UniProt P22411) (assay: Assay of DPP-IV enzyme inhibitory activity (spectrophotometric, Gly-Pro-pNA cleavage)). Details: Porcine DPP-IV, Gly-Pro-pNA substrate, 30° C.; mean ± SD of three experiments except compound Nos. 133 & 139; read-out: IC50 (μM) Mean ± SD, inhibitory activity on DPP-IV enzyme activity.
T1 construct: purchased Sigma-Aldrich Germany
Type: biochemical
Method: Assay of DPP-IV Enzyme Inhibitory Activity.
The assay method is a modified method (as described by Welch et al, 1998) based on spectrophotometric determination of the product formed by penultimate proline cleaving activity of the enzyme.
Assay protocol involves incubation of the enzyme dipeptidyl peptidase IV with the test substance at 30° C. for 30 min followed by addition of this reaction mixture to the substrate Gly-Pro-pNA that was equilibrated at 30° C. for 2 min. The enzyme cleaves the substrate at penultimate proline and releases p-nitroanilide, the optical density of which is measured at 385 nm. The formation of p-nitroanilide will be reduced in the presence of inhibitor. […] The activity of molecule is expressed in terms of % inhibition. At least three different concentrations were tried out for each of the test substances. The percentage inhibitions for each of the concentrations were plotted and an IC50 of the test compound was worked out. The enzyme inhibitory activity of different test compounds were compared based on the IC50 values.
The percentage inhibition % I, is calculated using the formula:
% I=[(1−vi/v0)]*100 where vi and v0 are the Vmax values with and without the test substance, respectively.
Substrate solution: 0.5 mM in 45 mM phosphate buffer
Substrate used: Gly-Pro-p-nitroanilide (Source: Sigma-Aldrich Co. Germany)
3.288 mg substrate in 1 ml 45 mM phosphate buffer was prepared as stock solution. 0.25 ml of this stock solution was diluted to 5 ml to get 0.5 mM substrate solution (90 μl to be added in each well). The stock solution of the substrate was used within three days of preparation.
Enzyme solution: Porcine DPP-IV (Sigma-Aldrich Germany) was used throughout the study. 0.4 mU in 80 μl of Tris. HCl buffer was prepared. Fresh solutions were prepared everyday for the assays.
Various concentrations of inhibitor were used: 0.391 μM, 0.781 μM, and 3.125 μM. Solutions of inhibitor were prepared and used on the same day.
280 μl of enzyme solution (0.4-mU/80 μl in Tris HCl buffer) was added to the eppendorf containing 70 μl solution of inhibitor or vehicle and mixed. This reaction mixture was incubated for 30 min at 30° C. The 96 well plate containing substrate solution was thermally equilibrated in the spectrophotometer for 2 min at 30° C. Later 100 μl of the enzyme-inhibitor pre-incubation solution was added to respective wells in a 96 well plate. Each concentration of the inhibitor was tested in triplicates.
The rate of change in UV absorbance (in presence of various concentrations of the inhibitor) was measured at 385 nm, with respect to wells containing only 0.5 mM substrate in 45 mM phosphate buffer as blank at every 10 min for 2 hours after adding enzyme-inhibitor mixture to wells containing substrate solution.

T1 sequence (P22411 whole entry): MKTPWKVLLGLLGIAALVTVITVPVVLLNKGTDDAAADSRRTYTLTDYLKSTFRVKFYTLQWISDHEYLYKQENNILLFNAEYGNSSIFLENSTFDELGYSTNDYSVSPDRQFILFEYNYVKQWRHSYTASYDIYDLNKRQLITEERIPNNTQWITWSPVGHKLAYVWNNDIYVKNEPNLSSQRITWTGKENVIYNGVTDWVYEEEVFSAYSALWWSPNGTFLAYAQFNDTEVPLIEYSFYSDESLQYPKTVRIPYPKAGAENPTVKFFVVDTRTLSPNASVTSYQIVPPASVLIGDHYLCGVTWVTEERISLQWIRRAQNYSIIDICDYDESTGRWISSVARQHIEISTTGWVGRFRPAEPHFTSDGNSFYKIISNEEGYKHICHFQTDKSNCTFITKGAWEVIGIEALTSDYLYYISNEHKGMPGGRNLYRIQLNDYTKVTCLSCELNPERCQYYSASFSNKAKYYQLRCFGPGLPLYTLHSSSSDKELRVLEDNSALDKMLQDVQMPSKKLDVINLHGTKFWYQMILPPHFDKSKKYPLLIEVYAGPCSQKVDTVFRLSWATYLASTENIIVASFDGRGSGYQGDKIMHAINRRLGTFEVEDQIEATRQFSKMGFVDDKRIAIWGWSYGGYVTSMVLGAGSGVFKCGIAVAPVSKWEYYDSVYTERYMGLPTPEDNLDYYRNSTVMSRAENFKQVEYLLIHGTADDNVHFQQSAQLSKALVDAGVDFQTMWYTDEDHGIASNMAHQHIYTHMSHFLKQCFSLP

Row | SMILES | IC50 [µM]
1 | CC1CCC(N(CC(=O)N2CSCC2C#N)NC2CCN(C(C)C)CC2)CC1 (centres unmarked) [Compound No. 54, 3-[1-Oxo-2-[1-(4-methylcyclohexyl)-2-(1-isopropyl-4-piperidinyl)]hydrazino]ethyl-4-cyanothiazolidine] | 6.43 ± 0.15
2 | Cc1ccc(S(=O)(=O)N2CCC(N(N)CC(=O)N3CSCC3C#N)CC2)cc1 (centres unmarked) [Compound No. 55, 3-[1-Oxo-2-(1-(1-(4-methylphenylsulphonyl)-4-piperidinyl)-hydrazino)]ethyl-4-cyanothiazolidine trifluoroacetate] | 2.7 ± 0.16
3 | Cc1ccc(S(=O)(=O)N2CCC(NN(C)CC(=O)N3CSCC3C#N)CC2)cc1 (centres unmarked) [Compound No. 56, 3-[1-Oxo-2-[1-methyl-2-(1-(4-methylphenylsulphonyl)-piperidin-4-yl)]hydrazino]ethyl-4-cyanothiazolidine trifluoroacetate] | 44.2 ± 1.36
4 | N#CC1CSCN1C(=O)CN(N)C1CCN(Cc2cccnc2)CC1 (centres unmarked) [Compound No. 57, 3-[1-Oxo-2-(1-(1-(3-pyridinemethyl)-4-piperidinyl) hydrazino)]ethyl-4-cyanothiazolidine tris trifluoroacetate] | 4.77 ± 0.41
5 | CN(CC(=O)N1CSCC1C#N)NC1CCN(Cc2ccc(C#N)cc2)CC1 (centres unmarked) [Compound No. 58, 3-[1-Oxo-2-[1-methyl-2-(1-(4-cyanophenylmethyl)piperidin-4-yl)]hydrazino]ethyl-4-cyanothiazolidine bis trifluoroacetate] | 17.1 ± 0.3
6 | CN(CC(=O)N1CSCC1C#N)NC1CCN(Cc2cccnc2)CC1 (centres unmarked) [Compound No. 59, 3-[1-Oxo-2-[1-methyl-2-(1-(3-pyridinylmethyl)-piperidin-4-yl)]hydrazino]ethyl-4-cyanothiazolidine tris trifluoroacetate] | 9.27 ± 0.42
7 | CCCC1CCC(N(N)CC(=O)N2CSCC2C#N)CC1 (centres unmarked) [Compound No. 60, 3-[1-Oxo-2-(1-(4-npropylcyclohexyl) hydrazino)]ethyl-4-cyanothiazolidine trifluoro acetate] | 0.69 ± 0.03
8 | N#CC1CSCN1C(=O)CN(N)C1CCN(Cc2ccc([N+](=O)[O-])cc2)CC1 (centres unmarked) [Compound No. 61, 3-[1-Oxo-2-(1-(1-(4-nitrophenylmethyl)-piperidin-4-yl) hydrazino]ethyl-4-cyanothiazolidine trifluoroacetate] | 0.7 ± 0.03
9 | N#CC1CSCN1C(=O)CN(N)C1CCN(S(=O)(=O)c2ccc(Cl)cc2)CC1 (centres unmarked) [Compound No. 62, 3-[1-Oxo-2-[1-(1-(4-chlorophenylsulphonyl)-piperidin-4-yl)]hydrazino]ethyl-4-cyanothiazolidine trifluoroacetate] | 1.54 ± 0.34
10 | N#CC1CSCN1C(=O)CN(N)C12CCC(CC1)C2 (centres unmarked) [Compound No. 63, 3-[1-Oxo-2-(1-(1-norcamphoranyl) hydrazino)]ethyl-4-cyanothiazolidine trifluoroacetate] | 0.73 ± 0.02
11 | CCCC1CCC(N(N)CC(=O)N2CSCC2C#N)CC1 (centres unmarked) [Compound No. 64, 3-[1-Oxo-2-(1-(4-npropylcyclohexyl)hydrazino)]ethyl-4-cyanothiazolidine trifluoroacetate] | 0.34 ± 0.07
12 | CC1CCC(C(=O)N2CCC(N(N)CC(=O)N3CSCC3C#N)CC2)CC1 (centres unmarked) [Compound No. 65, 3-[1-Oxo-2-[1-(1-(4-methylcyclohexylcarbonyl)-piperidin-4-yl)]hydrazino]ethyl-4-cyanothiazolidine trifluoroacetate] | 0.87 ± 0.06
13 | CC(=O)N1CCC(N(N)CC(=O)N2CSCC2C#N)CC1 (centres unmarked) [Compound No. 66, 3-[1-Oxo-2-(1-(1-acetyl)-piperidin-4-yl)hydrazino]ethyl-4-cyanothiazolidine trifluoroacetate] | 1.53 ± 0.01
14 | CC1CCC(N(N)CC(=O)N2CS(=O)(=O)CC2C#N)CC1 (centres unmarked) [Compound No. 67, 1,1-Dioxo-3-[1-oxo-2-(1-(4-methylcyclohexyl)hydrazino)]ethyl-4-cyanothiazolidine trifluoroacetate] | 72.5 ± 7.05
15 | CC1CCC(NN(C)CC(=O)N2CSCC2C#N)CC1 (centres unmarked) [Compound No. 68, 3-[1-Oxo-2-(1-methyl-2-(4-methylcyclohexyl) hydrazino)]ethyl-4-cyanothiazolidine] | 45.3 ± 3.03
16 | CC1CCC(NN(C)CC(=O)N2CSCC2C#N)CC1 (centres unmarked) [Compound No. 69, 3-[1-Oxo-2-(1-methyl-2-(4-methylcyclohexyl) hydrazino)]ethyl-4-cyanothiazolidine] | 69 ± 10.1
17 | N#CC1CSCN1C(=O)CN(N)C1CCN(C(=O)c2cccc(Cl)c2Cl)CC1 (centres unmarked) [Compound No. 70, 3-[1-Oxo-2-(1-(1-(2,3-dichlorophenylcarbonyl)-piperidin-4-yl) hydrazino)]ethyl-4-cyanothiazolidine trifluoroacetate] | 1.79 ± 0.12
18 | CN(CC(=O)N1CSCC1C#N)NC1CCN(S(=O)(=O)c2ccc(Cl)cc2)CC1 (centres unmarked) [Compound No. 71, 3-[1-Oxo-2-[1-methyl-2-(1-(4-chlorophenylsulphonyl)-piperidin-4-yl)]-hydrazino]ethyl-4-cyanothiazolidine] | 86.2 ± 5.3
19 | N#CC1CSCN1C(=O)CN(N)C1CCNCC1 (centres unmarked) [Compound No. 72, 3-[1-Oxo-2-(1-(4-piperidinyl) hydrazino)]ethyl-4-cyanothiazolidine bis trifluoroacetate] | 12.1 ± 0.13
20 | N#CC1CSCN1C(=O)CN(N)C1CCC(NC(=O)c2ccc(F)cc2)CC1.O=C(O)C(F)(F)F (centres unmarked) [Compound No. 100, 3-[1-oxo-2-[1-(4-fluorobenzoyl)aminocyclohexan-4-yl)]hydrazino]ethyl-4-cyanothiazolidine trifluoroacetate] | 0.93 ± 0.015

Further lines, results first:

Row | IC50 [µM] | SMILES
21 | 48.9 ± 1.81 | N#CC1CCCN1C(=O)CN(N)C1CCN(S(=O)(=O)c2ccc(Cl)cc2)CC1 (centres unmarked) [Compound No. 73, [1-Oxo-2-(1-(1-(4-chlorophenylsulphonyl)-piperidin-4-yl)-hydrazino)]ethyl-2-cyanopyrrolidine trifluoroacetate]
22 | 97.7 ± 13.1 | CC(=O)NN(CC(=O)N1CSCC1C#N)C1CCC(C)CC1 (centres unmarked) [Compound No. 74, 3-[1-Oxo-2-(1-(4-methylcyclohexyl)-2-acetyl) hydrazino]ethyl-4-cyanothiazolidine]
23 | 0.31 ± 0.05 | N#CC1CSCN1C(=O)CN(N)C12CC3CC(CC(C3)C1)C2 (centres unmarked) [Compound No. 75, 3-[1-Oxo-2-(1-(1-adamantanyl) hydrazino)]ethyl-4-cyanothiazolidine trifluoroacetate]
24 | 4.15 ± 0.29 | CC(C)(C)C(=O)N1CCC(N(N)CC(=O)N2CSCC2C#N)CC1 (centres unmarked) [Compound No. 76, 3-[1-Oxo-2-(1-(1-(tert-butylcarbonyl)-piperidin-4-yl) hydrazino)]ethyl-4-cyanothiazolidine trifluoroacetate]
25 | 0.67 ± 0.06 | N#CC1CSCN1C(=O)CN(N)C1CCN(c2ccc(C(F)(F)F)cn2)CC1 (centres unmarked) [Compound No. 77, 3-[1-Oxo-2-(1-(1-(5-trifluoromethyl-2-pyridinyl)-piperidin-4-yl) hydrazino)]ethyl-4-cyano thiazolidine bis trifluoroacetate]
26 | 0.25 ± 0.02 | CS(=O)(=O)NC1CCC(N(N)CC(=O)N2CSCC2C#N)CC1 (centres unmarked) [Compound No. 78, 3-[1-Oxo-2-(1-(1-methanesulphonylamino-4-cyclohexyl) hydrazino)]ethyl-4-cyanothiazolidine trifluoroacetate]
27 | 0.92 ± 0.03 | CC1CC(N(N)CC(=O)N2CSCC2C#N)CC(C)(C)C1 (centres unmarked) [Compound No. 79, 3-[1-Oxo-2-(1-(3,3,5-trimethylcyclohexyl)-hydrazino)]ethyl-4-cyanothiazolidine trifluoroacetate]
28 | 2.27 ± 0.19 | CCNN(CC(=O)N1CSCC1C#N)C(C)C (centres unmarked) [Compound No. 80, 3-[1-Oxo-2-(1-isopropyl-2-ethyl)-hydrazino]-ethyl-4-cyanothiazolidine trifluoroacetate]
29 | 1.63 ± 0.15 | N#CC1CSCN1C(=O)CN(N)C1CCN(Cc2ccccc2)CC1 (centres unmarked) [Compound No. 81, 3-[1-Oxo-2-[1-(1-phenylmethyl-piperidin-4-yl)]-hydrazino]-ethyl-4-cyanothiazolidine trifluoroacetate]
30 | 0.66 ± 0.1 | N#CC1CSCN1C(=O)CN(N)C1CCC(NS(=O)(=O)c2ccc(Cl)cc2)CC1 (centres unmarked) [Compound No. 82]
31 | 82 ± 18 | N#CC1CSCN1C(=O)CN1CCCCN1 (centres unmarked) [Compound No. 83]
32 | 5.78 ± 0.18 | CC(C)NN(CC(=O)N1CSCC1C#N)C1CCC(NS(C)(=O)=O)CC1 (centres unmarked) [Compound No. 84, 3-[1-Oxo-2-(1-(1-methanesulphonylamino-4-cyclohexyl)-2-isopropyl) hydrazino]ethyl-4-cyanothiazolidine trifluoroacetate]
